The Ki is the equilibrium dissociation constant of an inhibitor or competing ligand from its target. A lower Ki goes with a stronger hold on the target.

Two molecules from US6319932A, “Oxazolidinones useful as alpha 1A adrenoceptor antagonists” (Merck & Co., Inc., priority 1999, dated 2001) can be followed below.

The target in test [1] is T1, human alpha 1a adrenergic receptor (Homo sapiens, UniProt P35348).
T1 construct: expressed in transfected cells; host or cells: stably transfected human alpha 1a cell line (ATCC CRL 11140), membranes
T1 sequence (P35348 1-466): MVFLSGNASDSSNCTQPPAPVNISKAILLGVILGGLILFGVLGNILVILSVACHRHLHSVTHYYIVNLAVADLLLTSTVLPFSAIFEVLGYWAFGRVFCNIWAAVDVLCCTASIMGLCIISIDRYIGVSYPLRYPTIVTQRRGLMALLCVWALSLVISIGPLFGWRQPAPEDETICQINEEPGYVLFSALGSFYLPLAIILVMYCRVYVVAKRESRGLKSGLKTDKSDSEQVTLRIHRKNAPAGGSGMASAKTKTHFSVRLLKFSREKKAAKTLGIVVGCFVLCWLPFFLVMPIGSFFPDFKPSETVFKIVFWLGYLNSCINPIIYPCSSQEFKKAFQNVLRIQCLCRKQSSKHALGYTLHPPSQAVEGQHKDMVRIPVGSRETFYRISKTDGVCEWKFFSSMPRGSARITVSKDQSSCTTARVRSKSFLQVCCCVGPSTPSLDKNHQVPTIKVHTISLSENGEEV
The experiment in a line: Screening Assay: Alpha 1a Adrenergic Receptor Binding ([125I]-HEAT competition binding). As to conditions: membranes of stably transfected human alpha 1a cell line; 100 pM [125I]-HEAT. Here is the method:
Screening Assay: Alpha 1a Adrenergic Receptor Binding
Membranes prepared from the stably transfected human alpha 1a cell line (ATCC CRL 11140) were used to identify compounds that bind to the human alpha 1a adrenergic receptor. These competition binding reactions (total volume=200 μl) contained 50 mM Tris-HCl pH. 7.4, 5 mM EDTA, 150 mM NaCl, 100 pM [^125 I]-HEAT, membranes prepared from the alpha 1a cell line and increasing amounts of unlabeled ligand. Reactions were incubated at room temperature for one hour with shaking. Reactions were filtered onto Whatman GF/C glass fiber filters with a Inotec 96 well cell harvester. Filters were washed three times with ice cold buffer and bound radioactivity was determined (Ki).

Test [2] deals with human alpha 1d adrenergic receptor. The experiment in a line: Selective Binding Assays, alpha 1d ([125I]-HEAT competition binding). To be noted: alpha 1a versus alpha 1d. Here is the method: (§1) Membranes prepared from stably transfected human alpha 1d and alpha 1b cell lines (ATCC CRL 11138 and CRL 11139, respectively) were used to identify compounds that selectively bind to the human alpha 1a adrenergic receptor. These competition binding reactions (total volume=200 μl ) contained 50 mM Tris-HCl pH. 7.4, 5 mM EDTA, 150 mM NaCl, 100 pM [^125 I]-HEAT, membranes prepared from cell lines transfected with the respective alpha 1 subtype expression plasmid and increasing amounts of unlabeled ligand. Reactions were incubated at room temperature for one hour with shaking. Reactions were filtered onto Whatman GF/C glass fiber filters with a Inotec 96 well cell harvester. Filters were washed three times with ice cold buffer and bound radioactivity was determined (Ki).

The test system of test [3] is human alpha 1b adrenergic receptor. The test is described as follows: Selective Binding Assays, alpha 1b ([125I]-HEAT competition binding). To be noted: alpha 1a versus alpha 1b. As for the experimental part:
as §1

In test [1], `N#Cc1ccccc1C1(C#N)CCN(CCCNC(=O)N2C(=O)O[C@@H](C(N)=O)[C@@H]2c2ccc(F)c(F)c2)CC1` [Example 10] showed a Ki of 3.9 nM. With `O=C(c1ccccc1)[C@@H]1OC(=O)N(C(=O)NCCCN2CCC(c3ccc(F)cc3)CC2)[C@H]1c1ccc(F)c(F)c1` [Example 11], in test [2], the “selectivity in binding to alpha 1a receptors versus alpha 1d receptors” value is given as “about 76 fold”. Moreover, the “selectivity in binding to alpha 1a receptors versus alpha 1b receptors” value in test [3] is reported as “about 27 fold”.
